Laboratory results: patent US12123031B2, “Regulation of CRISPR-associated rossman fold (CARF) domain containing proteins by oligoadenylates” (VILNIUS UNIVERSITY, priority 2017, dated 2024)

Tests used:
ternary StCsm complex = target: T1, ternary StCsm complex (Streptococcus thermophilus, UniProt A0A0A7HFE1); test: StCsm mediated conversion of nucleoside triphosphates to reaction products (TLC); format: biochemical; conditions: 200 nM ternary StCsm, 50 μM nucleotide, 10 mM CoCl2, 37° C.
T1 construct: made in house; host or cells: Escherichia coli BL21 (DE3)
T1 sequence (A0A0A7HFE1 whole entry): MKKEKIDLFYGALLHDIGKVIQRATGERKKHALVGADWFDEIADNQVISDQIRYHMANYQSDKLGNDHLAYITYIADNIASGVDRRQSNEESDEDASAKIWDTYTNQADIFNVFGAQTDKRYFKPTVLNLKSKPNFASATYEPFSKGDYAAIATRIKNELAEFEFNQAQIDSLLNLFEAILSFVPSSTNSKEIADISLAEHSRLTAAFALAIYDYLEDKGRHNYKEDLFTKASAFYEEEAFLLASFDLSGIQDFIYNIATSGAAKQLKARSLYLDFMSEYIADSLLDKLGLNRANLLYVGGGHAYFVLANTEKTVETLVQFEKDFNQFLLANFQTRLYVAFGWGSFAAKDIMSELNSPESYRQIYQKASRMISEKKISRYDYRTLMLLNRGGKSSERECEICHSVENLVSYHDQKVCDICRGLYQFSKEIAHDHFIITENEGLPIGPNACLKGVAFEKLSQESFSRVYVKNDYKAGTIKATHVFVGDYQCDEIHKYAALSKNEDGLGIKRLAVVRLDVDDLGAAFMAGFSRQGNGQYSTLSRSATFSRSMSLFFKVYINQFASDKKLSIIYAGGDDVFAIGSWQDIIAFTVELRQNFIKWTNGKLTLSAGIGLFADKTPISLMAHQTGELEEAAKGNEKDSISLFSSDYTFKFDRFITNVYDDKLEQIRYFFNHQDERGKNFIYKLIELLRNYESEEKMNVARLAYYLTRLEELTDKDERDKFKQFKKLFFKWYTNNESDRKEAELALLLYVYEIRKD
T1 sequence (A0A0A7HGA1 whole entry, further chain): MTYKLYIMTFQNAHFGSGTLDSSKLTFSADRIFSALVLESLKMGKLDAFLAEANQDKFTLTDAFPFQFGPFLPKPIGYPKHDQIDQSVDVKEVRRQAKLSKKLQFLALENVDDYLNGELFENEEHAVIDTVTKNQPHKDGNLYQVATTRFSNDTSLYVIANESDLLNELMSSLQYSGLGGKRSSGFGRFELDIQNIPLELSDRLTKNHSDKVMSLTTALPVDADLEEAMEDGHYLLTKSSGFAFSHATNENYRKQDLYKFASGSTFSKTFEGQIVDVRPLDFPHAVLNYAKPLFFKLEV
T1 sequence (A0A0A7HIF0 whole entry, further chain): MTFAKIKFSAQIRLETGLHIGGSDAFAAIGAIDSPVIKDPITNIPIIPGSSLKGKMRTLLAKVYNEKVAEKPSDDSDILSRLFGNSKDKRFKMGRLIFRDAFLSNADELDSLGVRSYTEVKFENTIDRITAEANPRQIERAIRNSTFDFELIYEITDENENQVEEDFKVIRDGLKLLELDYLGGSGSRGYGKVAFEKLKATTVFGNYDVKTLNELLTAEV
T1 sequence (A0A0A7HIX1 whole entry, further chain): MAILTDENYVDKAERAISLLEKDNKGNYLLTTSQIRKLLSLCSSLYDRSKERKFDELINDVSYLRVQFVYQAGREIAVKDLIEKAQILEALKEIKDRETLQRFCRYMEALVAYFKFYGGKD
T1 sequence (A0A0A7HF79 whole entry, further chain): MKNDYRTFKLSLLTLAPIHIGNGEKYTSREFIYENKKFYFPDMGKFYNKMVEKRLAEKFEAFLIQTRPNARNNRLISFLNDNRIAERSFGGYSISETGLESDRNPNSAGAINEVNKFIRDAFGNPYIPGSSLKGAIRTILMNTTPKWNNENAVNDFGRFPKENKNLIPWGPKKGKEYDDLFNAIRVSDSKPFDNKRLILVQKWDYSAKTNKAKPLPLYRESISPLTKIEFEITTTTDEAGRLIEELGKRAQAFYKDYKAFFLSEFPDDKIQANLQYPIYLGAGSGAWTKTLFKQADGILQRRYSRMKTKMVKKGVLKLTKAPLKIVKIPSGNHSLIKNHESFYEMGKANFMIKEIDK
Procedure: StCsm mediated synthesis of cyclic oligoadenylates from ATP. The synthesis reactions of cyclic oligoadenylates by StCsm were initiated by adding 10 mM CoCl2 into a mix of 200 nM StCsm, 200 nM target RNA, 50 μM ATP and 10 nM α^32P-ATP in the Reaction buffer (33 mM Tris-acetate (pH 7.6 at 37° C.), 66 mM K-acetate, 0.1 mg/ml BSA) and carried out at 37° C. for 1 h or 1.5 h, unless stated otherwise. StCsm reactions on different nucleoside triphosphates contained 200 nM of ternary StCsm, 50 μM of the non-labeled nucleotide and 10 nM of the corresponding α^32P-nucleotide. The reactions were stopped by adding 15 mM EDTA. Reaction products were separated by TLC on PEI Cellulose F plates (Merck) in 0.5 M phosphate buffer (pH 3.5 at 23° C.) or a denaturating 24% (19:1 acrylamide:bis-acrylamide) PAAG and visualized using autoradiography.
(FIG. 1A) ATP reaction of an individual StCas10 subunit. The reactions contained 200 nM StCas10, 50 μM ATP, 10 nM α^32P-ATP (Perkin Elmer), 200 nM target RNA S3/2 and/or 5 nM M13 mp18 ssDNA. The assays were performed at 37° C. in the Reaction buffer supplemented with 10 mM CoCl2. Samples were analyzed by thin-layer chromatography (TLC), followed by phosphorimaging. Reaction products of the binary StCsm complex (Cas/Csm proteins plus crRNA) and ATP in the absence or in the presence of single-stranded (ss) DNA are presented in (FIG. 1B) and (FIG. 1C), respectively. Reaction products of the ternary StCsm complex (Cas/Csm proteins plus crRNA and target RNA) and ATP in the absence or in the presence of ssDNA are presented in (FIG. 1D) and (FIG. 1E), respectively. The reactions contained 200 nM of the binary or ternary StCsm, 50 μM ATP, 10 nM α^32P-ATP and 10 nM M13 mp18 ssDNA. The assays were performed at 37° C. in the Reaction buffer supplemented with 10 mM CoCl2 and the samples were analyzed by TLC, followed by phosphorimaging. Heating α^32P-ATP at 95° C. for 60 min was used to generate radiolabeled ADP and AMP, which were used as a TLC control (marked as lane M). Rate constants of ATP decay, which are presented bellow each TLC plate, were calculated by fitting single exponentials to the substrate depletion data. Cartoons above the graphs depict reaction components: protospacer is grey in between black lines, the complementary strand (matching spacer in crRNA) is lighter grey, DNA is a black circle.
(FIG. 3A) Cartoons above gels depict ternary StCsm complexes that differ in the bound target RNA molecules in the same manner as in FIG. 1. The agarose gels show degradation patterns of 1 nM of circular M13 mp18 ssDNA in the presence of 5 nM ternary StCsm complexes containing different RNAs FIG. 3A is reproduced from (1). All RNA substrates used here are bound and cleaved by the StCsm ribonuclease (2). (FIG. 3B) Reaction products of various ternary StCsm complexes with ATP. The reactions contained 200 nM of the ternary StCsm with different nucleic acids (NA), 50 μM ATP and 10 nM α^32P-ATP. The assays were performed at 37° C. in the Reaction buffer supplemented with 10 mM CoCl2 and the samples were analyzed by TLC, followed by phosphorimaging. Heating α^32P-ATP at 95° C. for 60 min was used to generate radiolabeled ADP and AMP, which were used as a TLC control (marked as lane M).
(A) Ternary StCsm complex was incubated with ATP, 2′dATP, 3′dATP, GTP, CTP or UTP radiolabeled nucleotides. The reactions contained 200 nM of the ternary StCsm, 50 μM of the non-labeled nucleotide and 10 nM of the corresponding α^32P-nucleotide. The assays were performed at 37° C. for 60 min in the Reaction buffer supplemented with 10 mM CoCl2 and samples were analyzed by TLC, followed by phosphorimaging. (B) The products of StCsm-mediated 2′dATP reaction were further analyzed by ion pair reverse-phase (RP) HPLC-MS. On the left panel, HPLC analysis is presented. On the right panels, the isotopic patterns of ions (without one, (M-H)-, or two (M-2H)2-protons) of the identified compounds are presented.

[1] = target: T2, StCsm complex (Palm domain of StCas10 subunit) (Streptococcus thermophilus, UniProt A0A0A7HFE1); test: Nucleotide binding assay (EMSA); conditions: for affinity towards nucleotide: EMSA, binary and ternary StCsm
T2 construct: made in house; host or cells: Escherichia coli BL21 (DE3)
T2 sequence (A0A0A7HFE1 whole entry, the tested form may be a part): as the sequence (A0A0A7HFE1 whole entry) above
T2 sequence (A0A0A7HF79 whole entry, further chain, the tested form may be a part): as the sequence (A0A0A7HF79 whole entry, further chain) above
T2 sequence (A0A0A7HIF0 whole entry, further chain, the tested form may be a part): as the sequence (A0A0A7HIF0 whole entry, further chain) above
T2 sequence (A0A0A7HGA1 whole entry, further chain, the tested form may be a part): as the sequence (A0A0A7HGA1 whole entry, further chain) above
T2 sequence (A0A0A7HIX1 whole entry, further chain, the tested form may be a part): as the sequence (A0A0A7HIX1 whole entry, further chain) above
Procedure: Nucleotide binding assay. Nucleotide binding assays were performed by incubating different amounts of StCsm complexes with 10 nM of ^32P-radiolabeled-nucleoside triphosphates in the Binding buffer (40 mM Tris, 20 mM acetic acid (pH 8.4 at 25° C.), 1 mM EDTA, 0.1 mg/ml BSA, 10% (v/v) glycerol). All reactions were incubated for 15 min at room temperature prior to electrophoresis on native 8% (w/v) polyacrylamide gel (PAAG). Electrophoresis was carried out at room temperature for 2 h at 6 V/cm using 40 mM Tris, 20 mM acetic acid (pH 8.4 at 25° C.), 0.1 mM EDTA as the running buffer. Gels were dried and visualized by a FLA-5100 phosphorimager (Fujifilm).
NTP binding by binary and ternary StCsm complexes was monitored using EMSA. The binding reactions contained 2 nM of α^32P-radiolabeled and 8 nM of the corresponding non-labeled nucleotide (ATP, 2′dATP, 3′dATP, GTP, UTP or CTP (Perkin Elmer)) in addition to the StCsm complex (without RNA, with the target RNA S3/2 or non-specific RNA NS, as denoted above the gels), at concentrations indicated by each lane. Samples were analyzed in PAAG under non-denaturing conditions.

StCsm6 = target: T3, StCsm6 (Streptococcus thermophilus, UniProt A0A0A7HIX6); test: Csm6 nuclease assay, StCsm6; format: biochemical
T3 construct: HSH (StrepII tag plus two 6xHis tags) (N); made in house; host or cells: E. coli DH10B (ara)
T3 sequence (A0A0A7HIX6 1-428): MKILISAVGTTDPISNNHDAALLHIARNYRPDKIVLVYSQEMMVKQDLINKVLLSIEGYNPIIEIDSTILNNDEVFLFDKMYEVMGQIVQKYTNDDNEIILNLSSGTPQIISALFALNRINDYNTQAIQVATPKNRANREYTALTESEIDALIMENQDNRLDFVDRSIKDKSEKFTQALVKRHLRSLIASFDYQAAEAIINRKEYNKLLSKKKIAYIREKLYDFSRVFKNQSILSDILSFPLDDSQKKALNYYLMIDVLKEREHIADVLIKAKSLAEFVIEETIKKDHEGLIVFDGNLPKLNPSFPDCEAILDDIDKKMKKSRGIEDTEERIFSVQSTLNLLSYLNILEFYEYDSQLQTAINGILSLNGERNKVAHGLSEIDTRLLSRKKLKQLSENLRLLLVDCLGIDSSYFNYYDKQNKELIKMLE
Procedure: Csm6 nuclease assay. […] 5′P-oligoadenylates were obtained by incubating 3.(3) μM of non-phosphorylated linear oligoadenylate with 0.5 U T4 polynucleotide kinase and 1 mM ATP in the Reaction buffer A at 37° C. for 40 min.
Reactions were started by adding 0-10 μM Csm6 and carried out at 37° C. The reaction products were separated on a denaturing 15% (29:1 acrylamide:bis-acrylamide) PAAG and visualized by autoradiography. StCsm6 nuclease assays with ATP additionally contained 1 mM of ATP in the reaction mixture.

StCsm6′ = target: T4, StCsm6′ (Streptococcus thermophilus, UniProt A0A0A7HFE6); test: Csm6 nuclease assay, StCsm6′; format: biochemical; conditions: ssRNA NS, 37° C. 30 min, 50 nM individual cyclic oligoadenylate
T4 construct: HSH (StrepII tag plus two 6xHis tags) (N); made in house; host or cells: E. coli DH10B (ara)
T4 sequence (A0A0A7HFE6 whole entry): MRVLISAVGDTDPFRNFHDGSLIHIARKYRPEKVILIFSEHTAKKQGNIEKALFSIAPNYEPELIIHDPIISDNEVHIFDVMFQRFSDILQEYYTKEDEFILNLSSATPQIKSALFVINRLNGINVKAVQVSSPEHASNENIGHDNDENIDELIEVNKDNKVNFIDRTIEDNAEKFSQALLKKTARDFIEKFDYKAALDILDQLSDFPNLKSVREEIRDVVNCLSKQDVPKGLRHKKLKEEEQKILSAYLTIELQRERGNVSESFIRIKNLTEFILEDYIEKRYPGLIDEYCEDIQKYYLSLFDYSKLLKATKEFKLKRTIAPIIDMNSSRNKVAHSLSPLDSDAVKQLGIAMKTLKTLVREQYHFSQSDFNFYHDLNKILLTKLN
Procedure: Csm6 nuclease assay. StCsm6, StCsm6′, and TtCsm6 nuclease assays were conducted in the Reaction buffer (33 mM Tris-acetate (pH 7.6 at 37° C.), 66 mM K-acetate, 0.1 mg/ml BSA) supplemented with 1 mM EDTA and containing 5 nM of 5′-radiolabeled and 5 nM of unlabeled RNA NS (unless stated otherwise; see all RNA substrates used in this study in Table 1) and 500 nM of cyclic oligoadenylate mixture or 0.5-500 nM of the HPLC purified cyclic oligoadenylate effectors or 5-500 nM linear oligoadenylate with various phosphorylation levels—linear oligoadenylate 5′-triphosphate (ChemGenes); non-phosphorylated, 3′P (Metabion) or 5′P containing linear oligoadenylates. 5′P-oligoadenylates were obtained by incubating 3.(3) μM of non-phosphorylated linear oligoadenylate with 0.5 U T4 polynucleotide kinase and 1 mM ATP in the Reaction buffer A at 37° C. for 40 min. […]
(FIG. 20A) Domain arrangement of StCsm6′. […] The elution profile of the StCsm6′ is presented with the calculated experimental molecular weight 108.1 kDa, corresponding to protein dimer. […]
Analysis of StCsm6 (FIG. 23A) and StCsm6′ (FIG. 23B) cleavage of ssRNA NS in the absence or presence of synthetic c(AMP)2 (c-di-AMP) (Sigma-Aldrich) or HPLC isolated c(AMP)3, c(AMP)4, c(AMP)5 (synthesized by StCsm from ATP) or c(AMP)6 (synthesized by StCsm from pp(pA)6 precursor). […] Samples were analyzed in denaturing PAAG, followed by phosphorimaging. […]

SMILES | reaction products formed from the nucleotide alone (ternary StCsm complex) | affinity towards nucleotide [1] | other results
Nc1ncnc2c1ncn2[C@H]1C[C@H](O)[C@@H](COP(=O)(O)OP(=O)(O)OP(=O)(O)O)O1 [2′dATP] | reacts with significantly lower efficiency |  | binding affinity, ternary StCsm complex ([1]; target RNA bound (ternary StCsm complex)): visibly decreases
Nc1ncnc2c1ncn2[C@@H]1O[C@H](COP(=O)(O)OP(=O)(O)OP(=O)(O)O)C[C@H]1O [3′dATP] | does not produce any reaction products |  | 
Nc1ncnc2c1ncn2[C@@H]1O[C@H](COP(=O)(O)O)[C@@H](O)[C@H]1O [AMP, adenosine monophosphate] | yields no products |  | 
Nc1ncnc2c1ncn2[C@@H]1O[C@H](COP(=O)(O)OP(=O)(O)OP(=O)(O)O)[C@@H](O)[C@H]1O [ATP, adenosine triphosphate] |  |  | inhibition of StCsm6 RNase (StCsm6; 1 mM ATP): inhibited; Kd ([1]; in the presence or absence of target RNA): 10 to 20 nM
Nc1ccn([C@@H]2O[C@H](COP(=O)(O)OP(=O)(O)OP(=O)(O)O)[C@@H](O)[C@H]2O)c(=O)n1 [CTP] | no reaction products are formed | no significant affinity | 
Nc1nc2c(ncn2[C@@H]2O[C@H](COP(=O)(O)OP(=O)(O)OP(=O)(O)O)[C@@H](O)[C@H]2O)c(=O)[nH]1 [GTP] | no reaction products are formed | no significant affinity | 
O=c1ccn([C@@H]2O[C@H](COP(=O)(O)OP(=O)(O)OP(=O)(O)O)[C@@H](O)[C@H]2O)c(=O)[nH]1 [UTP] | no reaction products are formed | no significant affinity | 
Nc1ncnc2c1ncn2[C@@H]1O[C@@H]2COP(=O)(O)O[C@H]3[C@@H](O)[C@H](n4cnc5c(N)ncnc54)O[C@@H]3COP(=O)(O)O[C@H]2[C@H]1O [c(AMP)2, c-di-AMP] |  |  | stimulation of StCsm6′ ribonuclease activity (StCsm6′): only c(AMP)6 stimulated; stimulation of StCsm6 ribonuclease activity (StCsm6; ssRNA NS, 37° C. 30 min, 50 nM individual cyclic oligoadenylate): only c(AMP)6 stimulated
